Test results as given in patent US20060264410A1, “19,26,27-trinor-1alpha,25-dihydroxyvitamin D3 compounds” (Wisconsin Alumni Research Foundation, priority 2005, published 2006).
“Also recorded” adds a separate entry of the source.

Legend:
[1] = system: cell differentiation; conditions: prior art; cited from earlier work
[2] = prior art; b9 values compared to 1α,25-dihydroxyvitamin D3; cited from earlier work
[3] = molecular target: T1, vitamin D receptor (Homo sapiens, UniProt P11473); conditions: from '352, '861 and '622 patents; cited from earlier work
T1 sequence (P11473 1-427): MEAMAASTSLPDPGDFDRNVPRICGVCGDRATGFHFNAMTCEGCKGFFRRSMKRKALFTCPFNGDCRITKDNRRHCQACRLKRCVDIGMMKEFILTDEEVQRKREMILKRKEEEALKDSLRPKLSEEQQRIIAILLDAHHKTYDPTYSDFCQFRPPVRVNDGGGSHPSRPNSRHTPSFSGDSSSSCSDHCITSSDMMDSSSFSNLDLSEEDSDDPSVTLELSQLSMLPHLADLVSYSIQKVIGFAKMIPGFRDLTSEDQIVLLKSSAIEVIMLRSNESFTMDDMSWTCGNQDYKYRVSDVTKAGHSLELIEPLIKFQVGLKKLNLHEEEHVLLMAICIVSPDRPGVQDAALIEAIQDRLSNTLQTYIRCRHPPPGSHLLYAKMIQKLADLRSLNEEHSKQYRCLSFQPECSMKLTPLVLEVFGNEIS

[4] = system: 24-hydroxylase (24Ohase) gene promoter; assay: In vitro transcription assay (luciferase reporter in ROS 17/2.8 cells); format: cell-based; conditions: 24Ohase promoter-luciferase, FIG. 4
Procedure: Transcription activity was measured in ROS 17/2.8 (bone) cells that were stably transfected with a 24-hydroxylase (24Ohase) gene promoter upstream of a luciferase reporter gene (Arbour et al., 1998). Cells were given a range of doses. Sixteen hours after dosing the cells were harvested and luciferase activities were measured using a luminometer. RLU=relative luciferase units.

[5] = Bone calcium mobilization (serum calcium); format: in vivo, Sprague-Dawley rats; conditions: rats, four ip doses, even at 7,020 pmol/day; FIGS. 5 and 7
Procedure: (§1) Male, weanling Sprague-Dawley rats were placed on Diet 11 (Suda et al. J. Nutr. 100:1049, 1970) (0.47% Ca) diet+vitamins AEK for one week followed by Diet 11 (0.02% Ca)+AEK for 3 weeks. The rats were then switched to a diet containing 0.47% Ca for one week followed by two weeks on the diet containing 0.02% Ca. Dose administration began during the last week on 0.02% calcium diet. Four consecutive ip doses were given approximately 24 hours apart. Twenty-four hours after the last dose, blood was collected from the severed neck and the concentration of serum calcium determined as a measure of bone calcium mobilization. The first 10 cm of the intestine was also collected for intestinal calcium transport analysis using the everted gut sac method.

[6] = Intestinal calcium transport (everted gut sac method); format: in vivo, Sprague-Dawley rats; conditions: rats, four ip doses; FIGS. 6 and 8
Procedure: as §1

[7] = system: HL-60 cells; assay: HL-60 differentiation (nitro blue tetrazolium reduction); format: cell-based, Human; conditions: FIG. 3
Procedure: The study drugs were dissolved in ethanol and the concentrations determined using UV spectrophotometry. Serial dilutions were prepared so that a range of drug concentrations could be tested without changing the final concentration of ethanol (≦0.2%) present in the cell cultures.
Human promyelocytic leukemia (HL60) cells were grown in RPMI-1640 medium containing 10% fetal bovine serum. The cells were incubated at 37° C. in the presence of 5% CO2.
HL60 cells were plated at 1.2×10^5 cells/mL. Eighteen hours after plating, cells in duplicate were treated with drug. Four days later, the cells were harvested and a nitro blue tetrazolium reduction assay was performed (Collins et al., 1979; J. Exp. Med. 149:969-974). The percentage of differentiated cells was determined by counting a total of 200 cells and recording the number that contained intracellular black-blue formazan deposits. Verification of differentiation to monocytic cells was determined by measuring phagocytic activity (data not shown).

[8] = molecular target: T2, full-length recombinant rat vitamin D receptor (Rattus norvegicus, UniProt P13053); assay: Vitamin D receptor binding, competition with [3H]-1,25-(OH)2-D3; conditions: FIGS. 1 and 2
T2 construct: Full-length recombinant rat receptor was expressed in E. coli BL21(DE3) Codon Plus RIL cells; histidine tag (C); made in house; host or cells: E. coli BL21(DE3) Codon Plus RIL
T2 sequence (P13053 1-423): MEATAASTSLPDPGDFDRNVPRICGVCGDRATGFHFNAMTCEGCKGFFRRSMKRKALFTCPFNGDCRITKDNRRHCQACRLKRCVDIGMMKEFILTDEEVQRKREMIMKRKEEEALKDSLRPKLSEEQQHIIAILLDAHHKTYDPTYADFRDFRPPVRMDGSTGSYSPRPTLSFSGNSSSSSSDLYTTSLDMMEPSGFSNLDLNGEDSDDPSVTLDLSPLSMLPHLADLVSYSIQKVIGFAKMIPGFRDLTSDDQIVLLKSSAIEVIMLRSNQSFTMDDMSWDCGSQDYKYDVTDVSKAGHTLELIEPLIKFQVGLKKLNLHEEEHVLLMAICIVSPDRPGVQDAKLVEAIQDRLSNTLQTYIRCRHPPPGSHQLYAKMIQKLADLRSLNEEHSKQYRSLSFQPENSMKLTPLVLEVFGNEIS
Procedure: Full-length recombinant rat receptor was expressed in E. coli BL21(DE3) Codon Plus RIL cells and purified to homogeneity using two different column chromatography systems. The first system was a nickel affinity resin that utilizes the C-terminal histidine tag on this protein. The protein that was eluted from this resin was further purified using ion exchange chromatography (S-Sepharose Fast Flow). Aliquots of the purified protein were quick frozen in liquid nitrogen and stored at −80° C. until use. For use in binding assays, the protein was diluted in TEDK50 (50 mM Tris, 1.5 mM EDTA, pH 7.4, 5 mM DTT, 150 mM KCl) with 0.1% Chaps detergent. The receptor protein and ligand concentration was optimized such that no more than 20% of the added radiolabeled ligand was bound to the receptor.
Unlabeled ligands were dissolved in ethanol and the concentrations determined using UV spectrophotometry (1,25(OH)2D3: molar extinction coefficient=18,200 and λmax=265 nm; Analogs: molar extinction coefficient=42,000 and λmax=252 nm). Radiolabeled ligand (^3H-1,25(OH)2D3, ˜159 Ci/mmol) was added in ethanol at a final concentration of 1 nM.
Radiolabeled and unlabeled ligands were added to 100 mcl of the diluted protein at a final ethanol concentration of ≦10%, mixed and incubated overnight on ice to reach binding equilibrium. The following day, 100 mcl of hydroxylapatite slurry (50%) was added to each tube and mixed at 10-minute intervals for 30 minutes. The hydroxylapaptite was collected by centrifugation and then washed three times with Tris-EDTA buffer (50 mM Tris, 1.5 mM EDTA, pH 7.4) containing 0.5% Titron X-100. After the final wash, the pellets were transferred to scintillation vials containing 4 mL of Biosafe II scintillation cocktail, mixed and placed in a scintillation counter. Total binding was determined from the tubes containing only radiolabeled ligand.

Row | Compound | cell differentiation activity [1] | calcemic / calcium mobilizing activity [2] | binding activity to the vitamin D receptor [3] | activity in causing transcription compared with 1α,25-dihydroxyvitamin D3 [4] | calcemic activity measured by bone calcium mobilization [5] | intestinal calcium transport [6] | activity in inducing differentiation of HL-60 cells compared with 1α,25-dihydroxyvitamin D3 [7] | activity in binding to the vitamin D receptor compared with 1α,25-dihydroxyvitamin D3 [8]
1 | 1α-hydroxy-2-methylene-19-nor-(20S)-homopregnacalciferol | relatively high cell differentiation activity | little if any calcemic activity | relatively high binding activity |  |  |  |  | 
2 | 1α-hydroxy-2-methylene-19-nor-bishomopregnacalciferol | relatively high cell differentiation activity | little if any calcemic activity | relatively high binding activity |  |  |  |  | 
3 | C[C@H](CCCC(C)(C)O)[C@H]1CC[C@H]2/C(=C/C=C3C[C@@H](O)C[C@H](O)C3)CCC[C@]12C [1α,25-dihydroxy-19-nor-vitamin D3] | high potency | very low calcium mobilizing activity |  |  |  |  |  | 
4 | C=C1[C@H](O)CC(=C/C=C2\CCC[C@]3(C)[C@@H](CC)CC[C@@H]23)C[C@H]1O [1α-Hydroxy-2-methylene-19-nor-pregnacalciferol] | relatively high cell differentiation activity | little if any calcemic activity | relatively high binding activity |  |  |  |  | 
5 | C=C1[C@H](O)CC(=C/C=C2\CCC[C@]3(C)[C@@H]([C@@H](C)CCCCO)CC[C@@H]23)C[C@H]1O [BM, 2-methylene-19,26,27-trinor-(20S)-1α,25-dihydroxyvitamin D3] |  |  |  | slightly less activity | no calcemic activity | do not elevate intestinal calcium transport | only slightly less active; also recorded: about the same activity | slightly less active
6 | CC(CCCCO)C1CCC2C(=CC=C3CC(O)C(C)C(O)C3)CCCC21C [P10, 2α-methyl-19,26,27-trinor-(20S)-1α,25-dihydroxyvitamin D3] |  |  |  | slightly less activity | no calcemic activity | do not elevate intestinal calcium transport | less activity | slightly more active
7 | CC1[C@H](O)CC(=C/C=C2\CCC[C@]3(C)[C@@H]([C@@H](C)CCCCO)CC[C@@H]23)C[C@H]1O (stereo partly drawn) [T-74, 2β-methyl-19,26,27-trinor-(20S)-1α,25-dihydroxyvitamin D3] |  |  |  | significantly less activity | no calcemic activity | do not elevate intestinal calcium transport | significantly less activity | significantly less active
